SMILES strings stand for the structures.

The values below come from publication PMC11144398, “Crizotinib inhibits the metabolism of tramadol by non-competitive suppressing the activities of CYP2D1 and CYP3A2” (PeerJ, 2024).

For data set [1], the system named is total CYP in rat liver microsomes. Kind of data set: Carbon monoxide differential UV spectrophotometric quantification of total CYP. It counts as in vitro ADME. The note with it: RLM from crizotinib-treated rats (45 mg/kg); CO quantitative method. On the procedure:
(§1) Nine rats were randomly divided into three groups (n = 3): group E received 0.5% CMC-Na for 7 days; group F received 45 mg/kg crizotinib for 6 days; and group G received 45 mg/kg of crizotinib for 7 days. […] The blood, liver, kidney, and small intestine were harvested within 10 min and flash-frozen in liquid nitrogen before being transferred to −80 °C for later use.
The CO quantitative method was utilized to measure the total quantity of CYP in rat liver microsomes. The microsomes were transferred to a 1.5 mL centrifuge tube and CO gas was introduced for 60 s. Next, sodium dithionite powder was added and mixed thoroughly. After two minutes, the absorbance of the liquid was measured at 450 nm and 490 nm ultraviolet wavelengths using an ultraviolet and visible spectrophotometer to calculate the total amount of CYP.

Data set [2] concerns the target T1, CYP2D1 (Rattus norvegicus, UniProt P10633).
T1 construct: All liver tissue samples were extracted into liver microsomes by homogenization and centrifugation; from tissue; host or cells: liver microsomes of Sprague-Dawley rats (control or dosed with crizotinib)
T1 sequence (P10633 1-504): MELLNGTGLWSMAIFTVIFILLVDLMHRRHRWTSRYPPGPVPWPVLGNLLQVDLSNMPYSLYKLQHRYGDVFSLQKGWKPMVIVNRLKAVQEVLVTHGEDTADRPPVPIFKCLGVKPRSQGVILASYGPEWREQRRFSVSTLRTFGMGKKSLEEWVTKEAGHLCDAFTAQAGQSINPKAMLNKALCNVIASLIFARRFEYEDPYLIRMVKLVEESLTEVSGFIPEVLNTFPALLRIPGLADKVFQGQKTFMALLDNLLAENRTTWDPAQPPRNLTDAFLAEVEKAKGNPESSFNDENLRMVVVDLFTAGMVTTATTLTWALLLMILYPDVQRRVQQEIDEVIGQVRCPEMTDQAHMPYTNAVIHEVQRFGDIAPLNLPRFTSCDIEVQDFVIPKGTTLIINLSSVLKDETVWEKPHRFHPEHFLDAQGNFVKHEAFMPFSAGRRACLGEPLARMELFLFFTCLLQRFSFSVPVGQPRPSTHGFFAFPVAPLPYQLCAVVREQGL
Kind of data set: Activity of CYP2D1 in liver microsomes of treated rats (dextromethorphan probe). It counts as in vitro ADME. On the procedure: as §1
(§2) All liver tissue samples were extracted into liver microsomes by homogenization and centrifugation, following the same operational steps as previously reported ([Simpson, 2010]). A new incubation system was established, which included 2 µL dextromethorphan or midazolam (the probe substrate of CYP2D1 or CYP3A2), 2 uL RLM (0.2 mg/mL) from different groups, 186 µL 1xPBS buffer, and 10 µL NADPH (1 mM). […] UPLC-MS/MS was used to detect the concentration of dextrorphan and 1-hydroxymidazolam to determine whether the activities of CYP2D1 and CYP3A2 in the liver were affected by crizotinib.
(In general: Liver microsomes are vesicles of endoplasmic reticulum, rich in cytochrome P450 enzymes.)

Data set [3] can be described thus: Serum biochemical analysis (ALT, AST). It counts as in vivo, Sprague-Dawley rats. The note with it: vs control. As for the experimental part:
as §1
Serum was collected after centrifugation of blood sample at 2400 × g for 5 min at 4 °C. The levels of ALT and AST were detected according to the protocol of ALT and AST activity assay kits.

Data set [4] deals with tramadol metabolism in human liver microsomes. Nature of the data set: Liver microsomal incubation assay: inhibition of tramadol metabolism in HLM. The data set is classed as in vitro ADME. The note with it: human, human liver microsomes, pH 7.4, probe tramadol 100 µM, tramadol 100 µM, crizotinib 0.01-100 µM. On the procedure:
(§3) All the substance meet the requirements for analysis.
(§4) To obtain the Michaelis kinetic parameters of tramadol in RLM and HLM, a 200 µL incubation system was established containing 2 µL RLM or HLM (0.2 mg/mL), 186 µL 1xPBS buffer (pH = 7.4), 2 µL tramadol (10–500 µM), and 10 µL NADPH (1 mM). The mixture was pre-incubated for 5 min without NADPH in a water bath shaking at 37 °C. Then, NADPH was added to initiate the reaction, and the mixture was incubated for another 30 min. The reaction was terminated by adding 400 µL of cold ACN and 20 µL of IS (500 ng/mL).
(§5) To determine the half-maximal inhibitory concentration (IC50), the concentration of crizotinib was set at 0.01, 0.1, 1, 10, 25, 50, and 100 µM, while the concentration of tramadol was constant at 60 µM in RLM or 100 µM in HLM (according to Km).
(§6) All data were presented as mean ± SD (standard deviation).

Data set [5] deals with tramadol metabolism in human liver microsomes (HLM). The data set is described as above. It counts as in vitro ADME. As for the experimental part: as §3, §4, §5, §6
Data set [6] has as its target T2, CYP3A2 (Rattus norvegicus, UniProt P05183).
T2 construct: All liver tissue samples were extracted into liver microsomes by homogenization and centrifugation; from tissue; host or cells: liver microsomes of Sprague-Dawley rats (control or dosed with crizotinib)
T2 sequence (P05183 1-504): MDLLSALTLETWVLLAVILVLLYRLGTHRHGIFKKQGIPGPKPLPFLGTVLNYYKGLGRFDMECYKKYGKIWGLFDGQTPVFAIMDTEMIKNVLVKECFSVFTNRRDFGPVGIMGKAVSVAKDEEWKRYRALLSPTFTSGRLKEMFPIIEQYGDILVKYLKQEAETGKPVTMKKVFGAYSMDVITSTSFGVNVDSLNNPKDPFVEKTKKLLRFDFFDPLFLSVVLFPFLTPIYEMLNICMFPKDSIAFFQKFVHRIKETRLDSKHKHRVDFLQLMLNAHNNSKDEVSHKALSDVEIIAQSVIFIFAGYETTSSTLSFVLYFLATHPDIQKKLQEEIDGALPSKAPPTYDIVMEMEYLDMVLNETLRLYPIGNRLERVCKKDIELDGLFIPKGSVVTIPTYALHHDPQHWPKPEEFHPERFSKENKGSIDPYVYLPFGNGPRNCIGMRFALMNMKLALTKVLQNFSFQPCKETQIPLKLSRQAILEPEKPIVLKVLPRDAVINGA
Nature of the data set: Activity of CYP3A2 in liver microsomes of treated rats (midazolam probe). The note with it: RLM from crizotinib-treated rats (45 mg/kg); midazolam 10 µM. It counts as in vitro ADME. On the procedure: as §1, §2

Data set [7] relates to liver, kidney and small intestine. Nature of the data set: Morphological examination (H&E staining) of liver, kidney and small intestine. The data set is classed as in vivo, Sprague-Dawley rats. The note with it: crizotinib 45 mg/kg, single dose or 7 consecutive days; vs control group E. On the procedure: […] […] The blood, liver, kidney, and small intestine were harvested within 10 min and flash-frozen in liquid nitrogen before being transferred to −80 °C for later use.
Additionally, the tissues were fixed in 10% formalin solution and embedded in paraffin. Hematoxylin-eosin (H&E) staining was performed on paraffin sections, which had been dewaxed, dehydrated, and sealed with neutral gum. Pannoramic MIDI was then used to observe the tissues.

Setting [8] is: crizotinib 45 mg/kg for consecutive 7 days.
Where [9] appears, read: crizotinib 45 mg/kg single dose.

A word on the IC50: it is the concentration at which inhibition is half-maximal. For orientation: Ki means a measure of affinity in units of concentration, obtained from inhibition or displacement. Read a low Ki as tighter binding. Take `C[C@@H](Oc1cc(-c2cnn(C3CCNCC3)c2)cnc1N)c1c(Cl)ccc(F)c1Cl` [crizotinib]: in data set [1], the “total amount of CYP” value was “decreased”. Also, the “metabolic rate of dextromethorphan (CYP2D1 activity)” value in data set [2] (RLM from crizotinib-treated rats (45 mg/kg), dextromethorphan 25 µM) was “decreased to different extents”; in data set [2] (crizotinib administered for seven days), “significant decrease”. Moreover, the “level of serum ALT” value in data set [3] (setting [8]) is given as “increased significantly”; in data set [3] (setting [9]), “no significant change”. For the same molecule, the results for the “level of serum AST” value in data set [3] (setting [8]) and in data set [3] (setting [9]) were “increased significantly” and “no significant change”, respectively. This molecule displayed a half-inhibitory concentration (IC50) at 30 min in data set [4] of 11.9 ± 0.25 µM. Further, in data set [5] (Lineweaver-Burk plot), the “inhibition mode of tramadol metabolism” value is given as “non-competitive”. The same molecule returned a Ki in data set [5] (Lineweaver-Burk, crizotinib 0, 5, 10, 20 µM, tramadol 25-200 µM) of 14.4 µM. The “metabolic rate of midazolam (CYP3A2 activity)” value in data set [6] is listed as “decreased to different extents”. In addition, in data set [7], the “changes in cell morphology, size, arrangement, nuclear morphology of liver, kidney and small intestine (H&E)” value was “no obvious changes”.
